Source: ChEMBL document CHEMBL1201862, “PubChem BioAssay data set” (2004)
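1) Cells in 96-well plates. 2) Compound, 48 h, 5 concentrations. 3) Linear interpolation between surrounding doses. 4) Unreached endpoint = highest concentration. Abbreviation: GI50, concentration required for 50% inhibition of growth.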 Activity calls are given as the source filed them. Rule as the data show it: active = GI50 up to about 1.1 µM and inactive = higher.

Tests used:
Assay in all cases: DTP human tumour cell line panel, 48 h
[1] = test system: OVCAR-5
[2] = test system: RXF 393
[3] = test system: U-251
[4] = test system: NCI-H23
[5] = test system: OVCAR-4
[6] = test system: HCT-116
[7] = test system: OVCAR-3
[8] = test system: DMS-114
[9] = test system: SK-MEL-2
[10] = test system: OVCAR-8
[11] = test system: SF-295
[12] = test system: SF-539
[13] = test system: HCC 2998
[14] = test system: 786-0
[15] = test system: Malme-3M
[16] = test system: SK-MEL-28
[17] = test system: M14
[18] = test system: A498
[19] = test system: NCI-H226
[20] = test system: K562
[21] = test system: LXFL 529
[22] = test system: HL-60
[23] = test system: SNB-78
[24] = test system: EKVX
[25] = test system: HOP-18
[26] = test system: SW-620
[27] = test system: SR
[28] = test system: ACHN
[29] = test system: UACC-62
[30] = test system: TK-10
[31] = test system: HT-29
[32] = test system: RPMI-8226
[33] = test system: NCI-H522
[34] = test system: M19-MEL
[35] = test system: XF498
[36] = test system: CCRF-CEM
[37] = test system: A549
[38] = test system: LOX IMVI
[39] = test system: KM12
[40] = test system: MOLT-4
[41] = test system: DLD-1
[42] = test system: SF-268
[43] = test system: NCI-H460
[44] = test system: IGROV-1
[45] = test system: SK-MEL-5
[46] = test system: KM-20L2
[47] = test system: SK-OV-3
[48] = test system: UO-31
[49] = test system: COLO 205
[50] = test system: HOP-92
[51] = test system: HOP-62
[52] = test system: HCT-15
[53] = test system: DMS-273
[54] = test system: UACC-257
[55] = test system: SN12C
[56] = test system: SNB-75
[57] = test system: RXF 631
[58] = test system: SNB-19
[59] = test system: CAKI-1

Measured: GI50

O=C(/C=C/c1ccc(O)c(O)c1)OC1C[C@@](O)(C(=O)O)C[C@@H](O)[C@H]1OC(=O)/C=C/c1ccc(O)c(O)c1 (stereo partly drawn)
> 100 µM: [52]
inactive: [1] > 100 µM | [2] > 100 µM | [3] > 100 µM | [4] > 100 µM | [5] > 100 µM | [6] > 100 µM | [7] > 100 µM | [8] > 100 µM | [9] > 100 µM | [10] > 100 µM | [11] > 100 µM | [12] > 100 µM | [13] > 100 µM | [14] > 100 µM | [15] > 100 µM | [16] > 100 µM | [17] > 100 µM | [18] > 100 µM | [19] > 100 µM | [20] > 100 µM | [21] > 100 µM | [22] > 100 µM | [23] > 100 µM | [24] > 100 µM | [25] > 100 µM | [26] > 100 µM | [27] > 100 µM | [28] > 100 µM | [29] > 100 µM | [30] > 100 µM | [31] > 100 µM | [32] > 100 µM | [33] > 100 µM | [34] > 100 µM | [35] > 100 µM | [36] > 100 µM | [37] > 100 µM | [38] > 100 µM | [39] > 100 µM | [40] > 100 µM | [41] > 100 µM | [42] > 100 µM | [43] > 100 µM | [44] > 100 µM | [45] > 100 µM | [46] 37.1 µM | [47] > 100 µM | [48] > 100 µM | [49] > 100 µM | [50] > 100 µM | [51] > 100 µM | [53] > 100 µM | [54] > 100 µM

N#CC(C(=O)C(=O)Nc1ccc(Cl)cc1)c1ccccc1 (stereo not drawn)
> 100 µM: [52]
inactive: [1] > 100 µM | [2] > 100 µM | [3] > 100 µM | [4] > 100 µM | [5] > 100 µM | [6] > 100 µM | [7] > 100 µM | [8] > 100 µM | [9] > 100 µM | [55] > 100 µM | [11] > 100 µM | [12] > 100 µM | [13] > 100 µM | [14] > 100 µM | [15] > 100 µM | [16] > 100 µM | [17] > 100 µM | [18] > 100 µM | [19] > 100 µM | [20] > 100 µM | [21] > 100 µM | [22] > 100 µM | [23] > 100 µM | [24] > 100 µM | [25] > 100 µM | [26] > 100 µM | [56] > 100 µM | [27] > 100 µM | [57] > 100 µM | [28] > 100 µM | [29] 22.6 µM | [30] > 100 µM | [31] > 100 µM | [32] > 100 µM | [34] > 100 µM | [36] > 100 µM | [37] > 100 µM | [38] > 100 µM | [39] > 100 µM | [40] > 100 µM | [41] > 100 µM | [42] > 100 µM | [43] > 100 µM | [44] > 100 µM | [45] > 100 µM | [46] > 100 µM | [58] > 100 µM | [47] > 100 µM | [48] > 100 µM | [49] 93.1 µM | [50] > 100 µM | [51] 85.1 µM | [59] > 100 µM | [53] > 100 µM | [54] > 100 µM

NC12CC3CC(C1)CC(Cl)(C3)C2
inactive: [1] > 100 µM | [2] > 100 µM | [3] > 100 µM | [4] > 100 µM | [6] > 100 µM | [7] > 100 µM | [8] > 100 µM | [9] > 100 µM | [10] > 100 µM | [12] > 100 µM | [13] > 100 µM | [14] > 100 µM | [15] > 100 µM | [16] > 100 µM | [17] > 100 µM | [18] > 100 µM | [20] > 100 µM | [21] > 100 µM | [22] > 100 µM | [23] > 100 µM | [24] > 100 µM | [26] > 100 µM | [56] > 100 µM | [57] > 100 µM | [28] > 100 µM | [29] > 100 µM | [30] > 100 µM | [31] > 100 µM | [32] > 100 µM | [33] > 100 µM | [34] > 100 µM | [35] > 100 µM | [36] > 100 µM | [37] > 100 µM | [38] > 100 µM | [39] > 100 µM | [40] > 100 µM | [41] > 100 µM | [43] > 100 µM | [44] > 100 µM | [46] > 100 µM | [47] > 100 µM | [48] > 100 µM | [49] > 100 µM | [50] > 100 µM | [51] > 100 µM | [53] > 100 µM | [54] > 100 µM
